{"source": "patent US20230112418A1", "about": "“COMPOUND AND RADIOACTIVE LABELING COMPOUND” (NIHON MEDI-PHYSICS CO., LTD., priority 2020, published 2023)", "tested_on": "LNCaP cells (PSMA positive)", "test": "Evaluation of binding using cultured cells (LNCaP)", "assay_type": "cell-based, human", "details": "FIG. 4", "method": "LNCaP cells (PSMA positive, human prostate cancer) and PC-3 cells (PSMA negative, human prostate cancer) were used. These cells were purchased from American Type Culture Collection and DS Biomedical, respectively. The LNCaP cells and the PC-3 cells were each cultured in RPMI 1640 containing antibiotics (penicillin and streptomycin) and 10% inactivated fetal bovine serum, manufactured by Nacalai Tesque, Inc. at 37° C. under 5% CO2.\nThe LNCaP cells and the PC-3 cells were each seeded in a 12 well plate at 4.0×10^5 cells/well, and allowed to stand at 37° C. under 5% CO2 for 48 hours.\nThe culture medium was removed, and an assay medium (0.5% FBS-containing RPMI 1640 medium) solution (1 mL) containing [^111In]In-PSMA-DA1 or [^111In]In-PSMA-DB (37 kBq) was added to the residue. Thereafter, the plate was allowed to stand at 37° C. under 5% CO2 for one hour. […]\nThe radioactivity of each of the assay medium and the cell lysate was measured with a gamma counter. Separately from this, the total protein concentration in the cell lysate was calculated using a BCA Protein Assay Kit manufactured by Thermo Fisher Scientific. A value (% ID/mg protein) obtained by dividing the percentage (% ID) of the amount of radioactivity of a sample to the amount of added radioactivity by the total protein mass was calculated for each sample.\nData was expressed as mean±standard deviation. […]", "data": [{"compound": "O=C([O-])CN1CCN(C(CCC(=O)NCCCC[C@H](NC(=O)N[C@@H](CCC(=O)O)C(=O)O)C(=O)O)C(=O)[O-])CCN(CC(=O)[O-])CCN(C(CCC(=O)Nc2ccccc2)C(=O)[O-])CC1.[111In+3]", "note": "(some centres unmarked) [[^111In]In-PSMA-DB]", "values": [{"measurement": "Effect of excess 2-PMPA on binding (in words)", "setting": "2-PMPA 100 μM", "result": "significantly reduced"}, {"measurement": "Binding property LNCaP vs PC-3 cells (in words)", "result": "higher binding property to the LNCaP cells than the PC-3 cells"}]}]}
